Results published in patent publication US9598423B2 (BRISTOL-MYERS SQUIBB COMPANY, priority 2013, dated 2017).

Columns and labels:
CK1δ = CK1δ (Homo sapiens (Human), UniProt P48730); test: CK1δ kinase assay (Caliper LABCHIP electrophoretic separation of fluoresceinated peptide substrate and product); type: biochemical; conditions: 200 pM CK1δ, 50 μM ATP, 1.5 μM peptide substrate, 22 hours at room temperature; read-out: CK1δ (IC50)
Outline: (§1)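 Eleven-concentration compound series in kinase reactions run for 22 hours at room temperature. Terminated with EDTA, with product conversion read by electrophoretic separation. Non-linear regression gave IC50.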

CK1ε = CK1ε (Homo sapiens (Human), UniProt P49674); test: CK1ε kinase assay (Caliper LABCHIP electrophoretic separation of fluoresceinated peptide substrate and product); type: biochemical; conditions: 200 pM CK1ε, 50 μM ATP, 1.5 μM peptide substrate, 22 hours at room temperature; read-out: CK1ε (IC50)
Chain of CK1ε (P49674 whole entry): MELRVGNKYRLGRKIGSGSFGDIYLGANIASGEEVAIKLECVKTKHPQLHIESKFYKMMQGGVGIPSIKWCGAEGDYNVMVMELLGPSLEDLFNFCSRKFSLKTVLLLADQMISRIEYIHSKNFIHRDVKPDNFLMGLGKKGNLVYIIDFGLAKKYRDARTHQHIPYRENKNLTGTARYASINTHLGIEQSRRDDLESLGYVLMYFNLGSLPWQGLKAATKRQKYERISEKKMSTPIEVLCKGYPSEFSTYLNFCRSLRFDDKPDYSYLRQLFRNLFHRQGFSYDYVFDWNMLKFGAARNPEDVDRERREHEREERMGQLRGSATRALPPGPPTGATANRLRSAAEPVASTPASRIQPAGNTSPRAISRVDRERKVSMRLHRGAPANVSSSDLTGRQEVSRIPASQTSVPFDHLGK
Outline: as §1

Chain of CK1δ (P48730 whole entry): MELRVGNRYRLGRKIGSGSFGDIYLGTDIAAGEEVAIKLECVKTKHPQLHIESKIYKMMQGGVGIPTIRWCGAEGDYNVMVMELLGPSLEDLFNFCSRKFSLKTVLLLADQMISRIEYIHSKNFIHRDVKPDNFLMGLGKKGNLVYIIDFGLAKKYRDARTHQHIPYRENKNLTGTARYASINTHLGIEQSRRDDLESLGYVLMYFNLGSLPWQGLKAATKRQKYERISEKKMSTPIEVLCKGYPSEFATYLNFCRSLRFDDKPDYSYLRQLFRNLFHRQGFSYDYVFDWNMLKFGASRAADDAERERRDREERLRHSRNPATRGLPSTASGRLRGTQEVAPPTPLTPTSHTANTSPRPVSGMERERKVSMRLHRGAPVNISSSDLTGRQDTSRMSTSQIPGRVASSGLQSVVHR

| SMILES | IC50 (CK1δ) [nM] | IC50 (CK1ε) [nM] |
| --- | --- | --- |
| Cc1cc(-c2nn3c(c2C(N)=O)CN(C(=O)Nc2ccc(C#N)c(Cl)c2)CC3)ccc1F [Compound 244, N^5-(3-Chloro-4-cyanophenyl)-2-(4-fluoro-3-methylphenyl)-6,7-dihydropyrazolo[1,5-a] pyrazine-3,5(4H)-dicarboxamide] | 0.01 to 10 | 0.01 to 10 |
| Cc1n[nH]c2c(Cl)cc(-c3nn4c(c3C(N)=O)CN(C(=O)Nc3ccc(C#N)cc3)CC4)cc12 [Compound 320, 2-(7-Chloro-3-methyl-1H-indazol-5-yl)-N^5-(4-cyanophenyl)-6,7-dihydropyrazolo[1,5-a]pyrazine-3,5(4H)-dicarboxamide] | 0.01 to 10 | 0.01 to 10 |
| NC(=O)c1c(-c2cccc(F)c2)nn2c1CN(C(=O)Nc1ccc(Oc3ccccc3)cc1)CC2 [Compound 58, 2-(3-Fluorophenyl)-N^5-(4-phenoxyphenyl)-6,7-dihydropyrazolo[1,5-a]pyrazine-3,5(4H)-dicarboxamide] | 0.01 to 10 | 0.01 to 10 |
| Cc1cc(NC(=O)N2CCn3nc(-c4cc(F)cc(Cl)c4)c(C(N)=O)c3C2)ccc1C#N [Compound 221, 2-(3-Chloro-5-fluorophenyl)-N^5-(4-cyano-3-methylphenyl)-6,7-dihydropyrazolo[1,5-a]pyrazine-3,5(4H)-dicarboxamide] | 0.01 to 10 | 0.01 to 10 |
| NC(=O)c1c(-c2ccc(F)c(F)c2)nn2c1CN(C(=O)Nc1ccc3c(c1)CS(=O)(=O)C3)CC2 [Compound 234, 2-(3,4-Difluorophenyl)-N^5-(2,2-dioxido-1,3-dihydrobenzo[c]thiophen-5-yl)-6,7-dihydropyrazolo [1,5-a]pyrazine-3,5(4H)-dicarboxamide] | 0.01 to 10 | 0.01 to 10 |
| COC(=O)N1CCC(NC(=O)N2CCn3nc(-c4cccc(F)c4)c(C(N)=O)c3C2)CC1 [Compound 99, Methyl 4-(3-carbamoyl-2-(3-fluorophenyl)-4,5,6,7-tetrahydropyrazolo[1,5-a]pyrazine-5-carboxamido)piperidine-1-carboxylate] | 0.01 to 10 | 0.01 to 10 |
| CC(C)(C)NC(=O)N1CCn2nc(-c3ccc(F)cc3F)c(C(N)=O)c2C1 [Compound 124, N^5-(tert-Butyl)-2-(2,4-difluorophenyl)-6,7-dihydropyrazolo[1,5-a]pyrazine-3,5(4H)-dicarboxamide] | 100 to 2000 | 100 to 2000 |
| NC(=O)c1c(-c2ccc(F)c(Cl)c2)nn2c1CN(C(=O)Nc1cccc(F)c1F)CC2 [Compound 191, 2-(3-Chloro-4-fluorophenyl)-N^5-(2,3-difluorophenyl)-6,7-dihydropyrazolo[1,5-a] pyrazine-3,5(4H)-dicarboxamide] | 0.01 to 10 | 0.01 to 10 |
| NC(=O)c1c(-c2ccc(F)c(Cl)c2)nn2c1CN(C(=O)Nc1ccc(C(F)(F)F)c(Cl)c1)CC2 [Compound 176, N^5-(3-Chloro-4-(trifluoromethyl)phenyl)-2-(3-chloro-4-fluorophenyl)-6,7-dihydropyrazolo[1,5-a] pyrazine-3,5(4H)-dicarboxamide] | 0.01 to 10 | 0.01 to 10 |
| NC(=O)c1c(-c2cccc(F)c2)nn2c1CN(C(=O)Nc1ccc(F)c(Cl)c1)CC2 [Compound 60, N^5-(3-Chloro-4-fluorophenyl)-2-(3-fluorophenyl)-6,7-dihydropyrazolo[1,5-a]pyrazine-3,5(4H)-dicarboxamide] | 0.01 to 10 | 0.01 to 10 |
| NC(=O)c1c(-c2cccc(F)c2)nn2c1CN(C(=O)Nc1cc(F)c(F)c(F)c1)CC2 [Compound 70, 2-(3-Fluorophenyl)-N^5-(3,4,5-trifluorophenyl)-6,7-dihydropyrazolo[1,5-a]pyrazine-3,5(4H)-dicarboxamide] | 0.01 to 10 | 0.01 to 10 |
| CC1Cn2nc(-c3cccc(Cl)c3)c(C(N)=O)c2CN1C(=O)Nc1ccc(C#N)cc1 (single isomer, unassigned) [Compound 332, 2-(3-Chlorophenyl)-N^5-(4-cyanophenyl)-6-methyl-6,7-dihydropyrazolo[1,5-a]pyrazine-3,5(4H)-dicarboxamide] | 0.01 to 10 | 0.01 to 10 |
| CN(C)c1cc(Cl)cc(-c2nn3c(c2C(N)=O)CN(C(=O)Nc2ccc(C#N)c(C(F)(F)F)c2)CC3)c1 [Compound 266, 2-(3-Chloro-5-(dimethylamino)phenyl)-N^5-(4-cyano-3-(trifluoromethyl)phenyl)-6,7-dihydropyrazolo[1,5-a]pyrazine-3,5(H)-dicarboxamide] | 0.01 to 10 | 0.01 to 10 |
| CC(C)OC(=O)N1CCC(NC(=O)N2CCn3nc(-c4cccc(F)c4)c(C(N)=O)c3C2)CC1 [Compound 100, Isopropyl 4-(3-carbamoyl-2-(3-fluorophenyl)-4,5,6,7-tetrahydropyrazolo[1,5-a]pyrazine-5-carboxamido)piperidine-1-carboxylate] | 0.01 to 10 | 0.01 to 10 |
| Cc1cc(NC(=O)N2CCn3nc(-c4cc(Cl)c5ocnc5c4)c(C(N)=O)c3C2)ccc1C#N [Compound 310, 2-(7-Chlorobenzo[d]oxazol-5-yl)-N^5-(4-cyano-3-methylphenyl)-6,7-dihydropyrazolo[1,5-a]pyrazine-3,5(4H)-dicarboxamide] | 0.01 to 10 | 0.01 to 10 |
| NC(=O)c1c(-c2cccc(Cl)c2)nn2c1CN(C(=O)Nc1ccc(F)c(F)c1)CC2 [Compound 156, 2-(3-Chlorophenyl)-N^5-(3,4-difluorophenyl)-6,7-dihydropyrazolo[1,5-a]pyrazine-3,5(4H)-dicarboxamide] | 0.01 to 10 | 0.01 to 10 |
| NC(=O)c1c(-c2cc(F)cc(Cl)c2)nn2c1CN(C(=O)Nc1cc(Cl)cc(Cl)c1)CC2 [Compound 216, 2-(3-Chloro-5-fluorophenyl)-N^5-(3,5-dichlorophenyl)-6,7-dihydropyrazolo[1,5-a] pyrazine-3,5(4H)-dicarboxamide] | 0.01 to 10 | 0.01 to 10 |
| CC1Cn2nc(-c3ccc(F)c(Cl)c3)c(C(N)=O)c2CN1C(=O)Nc1ccc(C#N)cc1 (single isomer, unassigned) [Compound 330, 2-(3-Chloro-4-fluorophenyl)-N^5-(4-cyanophenyl)-6-methyl-6,7-dihydropyrazolo[1,5-a]pyrazine-3,5(4H)-dicarboxamide] | 0.01 to 10 | 0.01 to 10 |
| CS(=O)(=O)Nc1cccc(-c2nn3c(c2C(N)=O)CN(C(=O)Nc2ccc(C#N)cc2)CC3)c1 [Compound 274, N^5-(4-Cyanophenyl)-2-(3-(methylsulfonamido)phenyl)-6,7-dihydropyrazolo[1,5-a] pyrazine-3,5(4H)-dicarboxamide] | 100 to 2000 | 100 to 2000 |

More lines, now with the values ahead:

| IC50 (CK1δ) [nM] | IC50 (CK1ε) [nM] | SMILES |
| --- | --- | --- |
| 0.01 to 10 | 0.01 to 10 | Cc1cc(NC(=O)N2CCn3nc(-c4cc(F)c5cnn(C)c5c4)c(C(N)=O)c3C2)ccc1C#N [compound 327] |
| 0.01 to 10 | 0.01 to 10 | COc1cc(NC(=O)N2CCn3nc(-c4cccc(Cl)c4)c(C(N)=O)c3C2)ccc1C#N [Compound A40, 2-(3-Chlorophenyl)-N^5-(4-cyano-3-methoxyphenyl)-6,7-dihydropyrazolo[1,5-a]pyrazine-3,5(4H)-dicarboxamide] |
| 0.01 to 10 | 0.01 to 10 | CC(C)(O)[C@@H]1CN(C(=O)Nc2ccc(C#N)cc2)Cc2c(C(N)=O)c(-c3ccc(Cl)c(Cl)c3)nn21 (single isomer, unassigned) [Compound A34, N^5-(4-Cyanophenyl)-2-(3,4-dichlorophenyl)-7-(2-hydroxypropan-2-yl)-6,7-dihydropyrazolo[1,5-a]pyrazine-3,5(4H)-dicarboxamide] |
| 100 to 2000 | 100 to 2000 | N#Cc1ccc(NC(=O)N2Cc3c(C(N)=O)c(-c4ccc(F)c(Cl)c4)nn3CC2C(F)(F)F)cc1 (single isomer, unassigned) [Compound 335, 2-(3-Chloro-4-fluorophenyl)-N^5-(4-cyanophenyl)-6-(trifluoromethyl)-6,7-dihydropyrazolo[1,5-a]pyrazine-3,5(4H)-dicarboxamide] |
| 0.01 to 10 | 0.01 to 10 | N#Cc1ccc(NC(=O)N2Cc3c(C(N)=O)c(-c4cccc(Cl)c4)nn3C3(CC3)C2)cc1 [Compound A86, 2′-(3-Chlorophenyl)-N^5′-(4-cyanophenyl)-4′H-spiro[cyclopropane-1,7′-pyrazolo[1,5-a]pyrazine]-3′,5′(6′H)-dicarboxamide] |
| 0.01 to 10 | 0.01 to 10 | NC(=O)c1c(-c2cccc(Cl)c2)nn2c1CN(C(=O)Nc1ccc(N3CCCCC3)cc1)C[C@@H]2CF [Compound A11, (R)-2-(3-Chlorophenyl)-7-(fluoromethyl)-N^5-(4-(piperidin-1-yl)phenyl)-6,7-dihydropyrazolo[1,5-a]pyrazine-3,5(4H)-dicarboxamide] |
| 0.01 to 10 | 0.01 to 10 | Cc1nc(-c2ccc(NC(=O)N3CCn4nc(-c5cccc(Cl)c5)c(C(N)=O)c4C3)cc2)cs1 [Compound A46, 2-(3-Chlorophenyl)-N^5-(4-(2-methylthiazol-4-yl)phenyl)-6,7-dihydropyrazolo[1,5-a]pyrazine-3,5(4H)-dicarboxamide] |
| 0.01 to 10 | 0.01 to 10 | N#Cc1ccc(NC(=O)N2Cc3c(C(N)=O)c(-c4ccc(F)c(Cl)c4)nn3CC2C2CC2)cc1 (single isomer, unassigned) [Compound 342] |
| 0.01 to 10 | 0.01 to 10 | C[C@H]1CN(C(=O)Nc2ccc(C#N)cc2)Cc2c(C(N)=O)c(-c3cccc(F)c3)nn21 (single isomer, unassigned) [Compound A78, N^5-(4-Cyanophenyl)-2-(3-fluorophenyl)-7-methyl-6,7-dihydropyrazolo[1,5-a]pyrazine-3,5(4H)-dicarboxamide] |
| 0.01 to 10 | 0.01 to 10 | CC(C)(C)c1cc(NC(=O)N2CCn3nc(-c4ccc(F)c(Cl)c4)c(C(N)=O)c3C2)ccc1C#N [Compound A51, N^5-(3-(tert-Butyl)-4-cyanophenyl)-2-(3-chloro-4-fluorophenyl)-6,7-dihydropyrazolo[1,5-a]pyrazine-3,5(4H)-dicarboxamide] |
